Test results from ChEMBL document CHEMBL5653615 (J Biol Chem, 2013).

Tests used:
[1] = target: RAC-gamma serine/threonine-protein kinase (Homo sapiens) (UniProt Q9Y243); test: Inhibition of human AKT3 at 18.6 nM by HotSpot assay relative to control
[2] = target: MAP kinase-activated protein kinase 2 (Homo sapiens) (UniProt P49137); test: Inhibition of human MAPKAPK2 at 18.6 nM by HotSpot assay relative to control
[3] = target: T1, Discoidin domain-containing receptor 2 (Homo sapiens) (UniProt Q16832); test: Inhibition of human DDR2 at 18.6 nM by HotSpot assay relative to control
T1 sequence (whole entry): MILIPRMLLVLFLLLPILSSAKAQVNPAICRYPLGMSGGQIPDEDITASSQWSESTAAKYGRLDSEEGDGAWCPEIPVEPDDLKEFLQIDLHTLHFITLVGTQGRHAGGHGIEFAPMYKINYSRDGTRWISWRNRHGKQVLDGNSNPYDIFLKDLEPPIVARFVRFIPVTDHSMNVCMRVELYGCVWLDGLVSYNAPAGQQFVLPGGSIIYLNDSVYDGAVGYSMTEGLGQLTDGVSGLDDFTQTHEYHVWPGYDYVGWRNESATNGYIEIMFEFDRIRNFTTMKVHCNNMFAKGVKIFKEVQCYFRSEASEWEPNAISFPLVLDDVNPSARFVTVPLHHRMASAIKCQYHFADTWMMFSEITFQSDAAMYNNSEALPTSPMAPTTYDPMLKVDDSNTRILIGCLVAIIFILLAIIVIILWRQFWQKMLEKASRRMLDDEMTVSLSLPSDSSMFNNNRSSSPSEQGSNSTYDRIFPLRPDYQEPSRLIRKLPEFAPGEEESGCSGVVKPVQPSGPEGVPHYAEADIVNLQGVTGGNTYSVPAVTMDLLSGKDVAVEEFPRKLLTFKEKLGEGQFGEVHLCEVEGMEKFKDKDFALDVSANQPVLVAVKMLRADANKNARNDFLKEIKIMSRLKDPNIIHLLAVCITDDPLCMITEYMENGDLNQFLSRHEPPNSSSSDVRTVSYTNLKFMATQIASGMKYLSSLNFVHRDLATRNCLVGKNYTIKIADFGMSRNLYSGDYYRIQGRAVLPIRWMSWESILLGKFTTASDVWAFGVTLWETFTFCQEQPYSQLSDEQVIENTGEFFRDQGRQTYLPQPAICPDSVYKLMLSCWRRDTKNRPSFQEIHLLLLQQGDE

[4] = target: T2, Ephrin type-A receptor 3 (Homo sapiens) (UniProt P29320); test: Inhibition of human EPHA3 at 1.82 nM by HotSpot assay relative to control
T2 sequence (whole entry): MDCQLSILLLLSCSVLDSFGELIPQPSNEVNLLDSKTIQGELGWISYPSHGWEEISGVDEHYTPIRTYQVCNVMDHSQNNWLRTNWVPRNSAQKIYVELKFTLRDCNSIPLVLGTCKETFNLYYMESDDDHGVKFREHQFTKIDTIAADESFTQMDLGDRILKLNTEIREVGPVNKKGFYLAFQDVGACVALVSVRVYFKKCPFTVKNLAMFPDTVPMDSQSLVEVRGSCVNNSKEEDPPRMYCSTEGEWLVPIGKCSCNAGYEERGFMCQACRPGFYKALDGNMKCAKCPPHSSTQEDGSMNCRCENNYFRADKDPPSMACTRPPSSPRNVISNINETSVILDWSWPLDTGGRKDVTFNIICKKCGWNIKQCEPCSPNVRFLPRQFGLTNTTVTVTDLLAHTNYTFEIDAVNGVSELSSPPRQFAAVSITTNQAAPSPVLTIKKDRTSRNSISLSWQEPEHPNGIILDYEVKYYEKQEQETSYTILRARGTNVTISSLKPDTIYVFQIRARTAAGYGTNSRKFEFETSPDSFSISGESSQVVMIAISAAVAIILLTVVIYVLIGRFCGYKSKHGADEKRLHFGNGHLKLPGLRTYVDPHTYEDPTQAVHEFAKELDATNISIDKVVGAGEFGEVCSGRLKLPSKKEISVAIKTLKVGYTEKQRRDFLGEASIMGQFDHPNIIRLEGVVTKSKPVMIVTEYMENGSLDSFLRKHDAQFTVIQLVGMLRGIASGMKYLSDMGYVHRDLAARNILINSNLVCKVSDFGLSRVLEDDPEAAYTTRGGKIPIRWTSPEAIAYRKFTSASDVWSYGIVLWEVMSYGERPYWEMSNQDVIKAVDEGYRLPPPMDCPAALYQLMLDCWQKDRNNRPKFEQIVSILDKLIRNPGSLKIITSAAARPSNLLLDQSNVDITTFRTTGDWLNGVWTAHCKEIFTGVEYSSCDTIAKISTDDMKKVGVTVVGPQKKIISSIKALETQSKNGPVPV

[5] = target: T3, Serine/threonine-protein kinase STK11 (Homo sapiens) (UniProt Q15831); test: Inhibition of human LKB1 at 1.82 nM by HotSpot assay relative to control
T3 sequence (whole entry): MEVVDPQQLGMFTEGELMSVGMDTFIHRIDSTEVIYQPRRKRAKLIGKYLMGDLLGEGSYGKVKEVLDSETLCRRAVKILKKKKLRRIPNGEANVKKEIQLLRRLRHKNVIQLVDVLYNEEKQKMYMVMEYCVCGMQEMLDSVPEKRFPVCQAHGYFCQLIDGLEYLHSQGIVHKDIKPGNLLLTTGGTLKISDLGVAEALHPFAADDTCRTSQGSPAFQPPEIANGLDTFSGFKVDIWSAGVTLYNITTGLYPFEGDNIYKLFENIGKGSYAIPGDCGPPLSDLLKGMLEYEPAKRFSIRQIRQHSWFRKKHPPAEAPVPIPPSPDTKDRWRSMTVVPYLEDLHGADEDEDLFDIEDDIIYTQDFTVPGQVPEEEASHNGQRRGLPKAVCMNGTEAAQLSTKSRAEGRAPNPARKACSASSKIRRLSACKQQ

[6] = target: CDK4/Cyclin D3 (Homo sapiens) (UniProt P11802+P30281); test: Inhibition of human CDK4/cyclin D3 at 1.82 nM by HotSpot assay relative to control; format: protein-complex assay
[7] = target: Platelet-derived growth factor receptor alpha (Homo sapiens) (UniProt P16234); test: Inhibition of human PDGFRa at 1.82 nM by HotSpot assay relative to control
Sequence of Platelet-derived growth factor receptor alpha (Homo sapiens) (P16234 whole entry): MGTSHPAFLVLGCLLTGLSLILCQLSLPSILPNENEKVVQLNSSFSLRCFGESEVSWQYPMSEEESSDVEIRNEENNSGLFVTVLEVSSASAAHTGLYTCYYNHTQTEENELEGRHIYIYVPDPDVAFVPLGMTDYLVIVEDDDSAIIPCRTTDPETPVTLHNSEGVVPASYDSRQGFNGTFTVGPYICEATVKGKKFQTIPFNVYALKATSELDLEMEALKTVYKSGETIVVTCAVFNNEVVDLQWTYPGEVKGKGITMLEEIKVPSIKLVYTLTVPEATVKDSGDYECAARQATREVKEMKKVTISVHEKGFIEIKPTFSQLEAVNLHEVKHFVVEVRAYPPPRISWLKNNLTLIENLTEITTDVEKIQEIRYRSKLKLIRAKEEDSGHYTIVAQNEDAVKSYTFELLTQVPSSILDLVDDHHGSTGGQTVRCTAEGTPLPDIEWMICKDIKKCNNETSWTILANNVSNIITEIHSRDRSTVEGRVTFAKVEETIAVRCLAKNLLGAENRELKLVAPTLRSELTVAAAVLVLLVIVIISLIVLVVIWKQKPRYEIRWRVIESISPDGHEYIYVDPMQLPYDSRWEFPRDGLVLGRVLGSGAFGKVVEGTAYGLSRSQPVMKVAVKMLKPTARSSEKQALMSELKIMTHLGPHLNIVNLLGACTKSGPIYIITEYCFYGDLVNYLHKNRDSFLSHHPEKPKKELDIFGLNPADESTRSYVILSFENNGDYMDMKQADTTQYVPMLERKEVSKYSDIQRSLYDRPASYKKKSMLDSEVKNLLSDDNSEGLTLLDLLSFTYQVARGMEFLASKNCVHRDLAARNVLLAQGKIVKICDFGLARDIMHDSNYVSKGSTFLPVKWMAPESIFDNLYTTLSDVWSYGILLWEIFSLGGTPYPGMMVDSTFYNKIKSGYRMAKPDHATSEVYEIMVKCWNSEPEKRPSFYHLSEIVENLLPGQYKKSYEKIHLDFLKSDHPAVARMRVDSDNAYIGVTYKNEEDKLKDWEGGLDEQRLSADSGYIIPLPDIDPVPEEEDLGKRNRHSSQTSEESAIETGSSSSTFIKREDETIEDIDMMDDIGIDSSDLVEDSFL

[8] = target: STE20/SPS1-related proline-alanine-rich protein kinase (Homo sapiens) (UniProt Q9UEW8); test: Inhibition of human STLK3 at 1.82 nM by HotSpot assay relative to control
[9] = target: CDK1/Cyclin A (Homo sapiens) (UniProt P06493+P20248); test: Inhibition of human CDK1/cyclin A at 1.82 nM by HotSpot assay relative to control; format: protein-complex assay
Sequence of CDK1/Cyclin A (Homo sapiens) (P06493 whole entry, looked up): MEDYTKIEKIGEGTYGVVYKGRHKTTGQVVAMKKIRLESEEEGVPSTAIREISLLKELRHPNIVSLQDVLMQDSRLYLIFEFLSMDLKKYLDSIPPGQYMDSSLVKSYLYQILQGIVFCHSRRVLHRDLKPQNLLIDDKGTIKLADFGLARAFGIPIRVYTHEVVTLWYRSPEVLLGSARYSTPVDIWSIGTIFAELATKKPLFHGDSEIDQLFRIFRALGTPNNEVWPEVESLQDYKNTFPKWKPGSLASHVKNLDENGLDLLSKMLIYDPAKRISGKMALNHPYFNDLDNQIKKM
Sequence of CDK1/Cyclin A (Homo sapiens) (P20248 whole entry, looked up): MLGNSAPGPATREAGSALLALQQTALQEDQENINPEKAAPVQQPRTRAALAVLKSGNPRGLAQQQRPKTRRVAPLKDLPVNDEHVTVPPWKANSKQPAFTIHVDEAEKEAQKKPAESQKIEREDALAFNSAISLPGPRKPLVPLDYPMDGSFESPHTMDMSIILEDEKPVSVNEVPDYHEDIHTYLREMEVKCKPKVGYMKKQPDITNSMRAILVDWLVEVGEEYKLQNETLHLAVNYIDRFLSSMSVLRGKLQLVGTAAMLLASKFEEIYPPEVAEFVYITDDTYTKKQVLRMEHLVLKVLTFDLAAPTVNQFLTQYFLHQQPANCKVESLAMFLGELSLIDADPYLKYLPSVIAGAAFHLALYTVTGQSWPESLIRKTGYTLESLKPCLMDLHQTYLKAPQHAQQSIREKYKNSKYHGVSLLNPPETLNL

Sequence of RAC-gamma serine/threonine-protein kinase (Homo sapiens) (Q9Y243 whole entry): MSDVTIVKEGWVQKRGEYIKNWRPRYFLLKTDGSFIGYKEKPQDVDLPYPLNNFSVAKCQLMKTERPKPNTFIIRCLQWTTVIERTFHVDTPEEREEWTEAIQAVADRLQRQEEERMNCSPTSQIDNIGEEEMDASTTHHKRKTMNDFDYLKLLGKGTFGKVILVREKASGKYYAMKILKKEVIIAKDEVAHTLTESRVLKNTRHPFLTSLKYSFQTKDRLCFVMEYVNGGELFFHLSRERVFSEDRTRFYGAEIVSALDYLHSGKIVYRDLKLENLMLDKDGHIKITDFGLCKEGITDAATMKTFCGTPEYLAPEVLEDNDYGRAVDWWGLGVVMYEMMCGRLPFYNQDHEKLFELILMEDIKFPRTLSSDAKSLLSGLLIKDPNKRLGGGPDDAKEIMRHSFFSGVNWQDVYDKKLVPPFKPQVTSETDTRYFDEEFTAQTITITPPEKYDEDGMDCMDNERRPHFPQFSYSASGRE
Sequence of MAP kinase-activated protein kinase 2 (Homo sapiens) (P49137 whole entry, looked up, the tested form may be a part): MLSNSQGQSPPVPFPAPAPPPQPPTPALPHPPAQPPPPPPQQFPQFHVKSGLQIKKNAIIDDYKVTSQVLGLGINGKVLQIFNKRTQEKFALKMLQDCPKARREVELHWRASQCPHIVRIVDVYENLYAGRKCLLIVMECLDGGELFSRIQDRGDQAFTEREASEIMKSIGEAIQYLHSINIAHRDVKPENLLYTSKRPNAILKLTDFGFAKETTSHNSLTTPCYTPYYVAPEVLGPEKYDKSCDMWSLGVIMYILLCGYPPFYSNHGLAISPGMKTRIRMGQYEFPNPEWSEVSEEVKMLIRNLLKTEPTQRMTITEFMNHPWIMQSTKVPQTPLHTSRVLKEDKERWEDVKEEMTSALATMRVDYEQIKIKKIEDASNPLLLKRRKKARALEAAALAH

inhibition [1] [%] | inhibition [2] [%] | inhibition [3] [%] | inhibition [4] [%] | inhibition [5] [%] | inhibition [6] [%] | inhibition [7] [%] | inhibition [8] [%] | inhibition [9] [%] | SMILES
-1.08 | 5.71 | -2.4 |  |  |  |  |  |  | C[C@]1(O)C[C@@H](c2nc(-c3ccc4ccc(-c5ccccc5)nc4c3)c3c(N)nccn32)C1
 |  |  | 6.1 | 4.47 | -0.76 | 0.58 | -5.74 | -1.79 | C[C@@]1(C(=O)Nc2ccc(F)nc2)CCCN1c1nc(Nc2cc(C3CC3)n[nH]2)c2cccn2n1
